Laboratory results from article PMC10655324, “Combinative effects of akarkara root-derived metabolites on anti-inflammatory and anti-alzheimer key enzymes: integrating bioassay-guided fractionation, GC-MS analysis, and in silico studies” (BMC Complementary Medicine and Therapies, 2023).
Where two headings read alike, the source gives them in different places.

What was measured:
AChE = AChE (Homo sapiens, UniProt P22303); test: biochemical
Description: (§1) The cholinesterase inhibitory activity was determined colorimetrically as previously published method with slight modifications. […] In a 96-well plate, 170 μl Tris-HCl buffer (200 mM, pH 7.5) was mixed with 20 μL of each tested sample solution and 20 μL of 0.1 U/ml enzyme solution (Ache or BChE) containing 0.1% bovine serum albumin in the same buffer. Dithio-bis-(2-nitrobenzoic acid) DTNB, an indicator, was added after 10 min of incubation at 25 °C (0.69 mM in tris buffer). […] In the control assays without the inhibitors, the tested samples were replaced by DMSO (20 μl) and their absorbance values were recorded (Reading B). Regarding the blank assays, the buffer (20 μL) was added instead of the enzyme.
(§2) The % inhibition was calculated using the following formula:
(§3) % of inhibition = [1− (corrected A/corrected B)] * 100

BChE = BChE (Homo sapiens, UniProt P06276); test: biochemical
Description: as §1, §2, §3

iNOS = iNOS inhibitory activity in LPS-induced RAW264.7 macrophages (nitrite, Griess reagent); assay type: cell-based; conditions: Mus musculus
Description: The RAW264.7 macrophage cells were grown on DMEM media, supplemented with 10% FBS and 1% P/S (100 U/ml and […], respectively). The RAW264.7 macrophage cells were kept in DMEM at 37 °C and 5% CO2. For the anti-inflammatory assays, cells were used at 60% confluency after a 24-hour acclimatization period.
Stock solutions of the extract, fractions (1 mg/mL) and the isolated compounds (1000 μM) were made by dissolving in 0.1% DMSO in PBS (pH 7.2). For experiments, they were further diluted with DMEM to obtain the desired concentration. In a 96-well plate, the RAW264.7 macrophages were seeded (4 × 10^3 cells per well) overnight, then washed with DMEM. The macrophages were pre-treated with various concentrations of the extract, fractions (125- 0.98 µg/mL), isolated compounds, and standard drugs (125 - 0.06 µM) for 30 min, and further incubated with LPS (1 μg/mL) for 24 h. For the negative control, cells were treated with 0.1% DMSO (negative control LPS-). After incubation, the monolayer of […] cells were washed with ice-cold PBS (pH 7.2), trypsinized, and treated with lysis buffer (1% Triton X-100, 50 mMTris–HCl, pH 7.4, 0.2% sodium dodecyl sulfate, 0.2% sodium deoxycholate, 1 mM phenylmethylsulfonyl fluoride, 1 mM sodium ethylenediaminetetraacetate, 5 μg/mL of leupeptin, 5 μg/mL of aprotinin) then centrifuged (5000 rpm for 10 min) to collect the supernatant, The cell lysates were stored at − 80 °C utilized for anti-inflammatory assays.
The inhibitory activity of Inducible nitric oxide synthase (iNOS) was determined in terms of nitric oxide (NO) concentration by measuring the quantity of nitrite in the cell culture supernatant using Griess reagent. Equal volumes of each cell lysate (100 µL) and Griess reagent (1% sulfanilamide, 0.1% naphthylethylenediamine dihydrochloride, and 5% phosphoric acid) were mixed and incubated at room temperature for 10 min. Using a microplate reader, absorbances at 540 nm were measured. Parthenolide served as a positive control. The % inhibition was calculated using the following formula:
iNOS % Inhibition= [(OD control−OD sample)/ OD control x 100].

[1] = DPPH radical scavenging assay; conditions: for IC50: isolated compounds and Trolox
Description: The extract and fractions were prepared in dimethyl sulfoxide (DMSO) at a concentration of 1mg/mL, while the isolated compounds were tested in 500 µM.
The 2,2-diphenyl-1-picrylhydrazyl (DPPH) assay was performed as described previously. One hundred μL of DPPH reagent (freshly prepared as 0.1% in methanol) was mixed with equal volume of each sample. Then, the solutions were left in the dark at room temperature for […]. Trolox (6-hydroxy-2,5,7,8-tetramethylchroman-2-carboxylic acid) was used as a positive control. The absorbances were measured at 517 nm. Data are represented as means ± SD according to the following equation:
Percentage inhibition = [(Average absorbance of blank - average absorbance of the test)/(Average absorbance of blank)] x 100
The IC50 of each tested sample was determined.

[2] = LPS-induced RAW264.7 macrophages, isolated compounds and Parthenolide, read-out: iNOS IC50

Chain of BChE (P06276 29-602, species assumed): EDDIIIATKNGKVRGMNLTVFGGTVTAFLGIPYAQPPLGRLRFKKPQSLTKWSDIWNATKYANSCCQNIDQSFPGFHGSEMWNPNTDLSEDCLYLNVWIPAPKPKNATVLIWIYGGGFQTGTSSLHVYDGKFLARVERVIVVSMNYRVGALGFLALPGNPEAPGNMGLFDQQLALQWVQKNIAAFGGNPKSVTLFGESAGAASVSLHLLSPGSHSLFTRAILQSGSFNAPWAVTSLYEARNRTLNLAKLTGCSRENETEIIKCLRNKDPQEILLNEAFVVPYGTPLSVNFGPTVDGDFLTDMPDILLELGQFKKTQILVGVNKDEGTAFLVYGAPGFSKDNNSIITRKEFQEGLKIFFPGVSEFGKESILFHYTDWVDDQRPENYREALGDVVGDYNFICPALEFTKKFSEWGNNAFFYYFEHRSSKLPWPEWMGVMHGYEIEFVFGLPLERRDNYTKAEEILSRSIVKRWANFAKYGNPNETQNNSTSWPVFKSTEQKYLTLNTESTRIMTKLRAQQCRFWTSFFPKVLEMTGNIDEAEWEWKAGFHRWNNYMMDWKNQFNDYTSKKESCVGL
Chain of AChE (P22303 32-614): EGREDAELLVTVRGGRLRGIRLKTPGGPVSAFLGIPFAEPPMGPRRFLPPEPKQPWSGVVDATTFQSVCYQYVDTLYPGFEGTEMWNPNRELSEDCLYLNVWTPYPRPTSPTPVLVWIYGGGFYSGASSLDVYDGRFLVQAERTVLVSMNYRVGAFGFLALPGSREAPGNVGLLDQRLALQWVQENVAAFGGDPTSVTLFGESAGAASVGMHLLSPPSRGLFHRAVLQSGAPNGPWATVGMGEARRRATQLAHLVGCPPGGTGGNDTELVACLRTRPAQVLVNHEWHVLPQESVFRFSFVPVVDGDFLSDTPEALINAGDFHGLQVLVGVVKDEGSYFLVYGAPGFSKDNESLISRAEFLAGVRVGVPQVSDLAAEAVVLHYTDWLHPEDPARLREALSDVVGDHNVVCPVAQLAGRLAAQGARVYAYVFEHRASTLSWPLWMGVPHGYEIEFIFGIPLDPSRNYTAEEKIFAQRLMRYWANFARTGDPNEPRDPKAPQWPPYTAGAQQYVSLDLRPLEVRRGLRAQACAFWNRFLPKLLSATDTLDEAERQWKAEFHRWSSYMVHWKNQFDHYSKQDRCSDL

Row | Compound | IC50 (AChE) [µM] | IC50 (BChE) [µM] | IC50 (iNOS; RAW264.7, read-out: iNOS IC50) [µM] | IC50 [1] [µM] | IC50 (iNOS; [2]) [µM] | DPPH IC50 ([1]; extract, fractions and Trolox standard) [µg/mL]
1 | CCCCCCCC/C=C\CCCCCCCC(N)=O [A1, 9-cis-octadecenamide] | 8.37 ± 0.1 | 9.29 ± 0.29 | 10.3 ± 0.12 | 21.67 ± 0.21 |  | 
2 | CC[C@H](/C=C/[C@@H](C)[C@H]1CC[C@H]2[C@@H]3CC=C4C[C@@H](O)CC[C@]4(C)[C@H]3CC[C@]12C)C(C)C [A2, stigmasterol] |  |  | 6.72 ± 0.08 | 16.4 ± 0.23 |  | 
3 | CCCCC/C=C/C=C/C(=O)NCCc1ccccc1 [A3, 2E, 4E-deca-2,4-dienoic acid 2-phenylethyl amide] | 7.7 ± 0.26 | 8.65 ± 0.25 |  | 17.73 ± 0.16 | 9.15 ± 0.12 | 
4 | CCCCC/C=C/C=C/C(=O)NCC(C)C [A4, deca-2E,4E-dienoic acid isobutylamide] |  |  | 11.4 ± 0.36 | 22.6 ± 0.41 |  | 
5 | C=C1C(=O)O[C@H]2[C@H]1CC/C(C)=C/CC[C@@]1(C)O[C@@H]21 [Parthenolide, reference compound] |  |  |  |  | 4.1 ± 0.08 | 
6 | Cc1c(C)c2c(c(C)c1O)CCC(C)(C(=O)O)O2 (stereo not drawn) [Trolox, 6-hydroxy-2,5,7,8-tetramethylchroman-2-carboxylic acid, reference compound] |  |  |  | 5.63 |  | 1.41 ± 0.08
